Four molecules from article PMC10766962 (Nature Communications, 2024) can be followed below.

“And” between values parts separate entries of the source, which are not always exact repeats. Identical values can stand only once. “Also recorded” adds a separate entry of the source. Like-named read-outs stand apart in the source and are kept apart here. Positions of bridges follow the written chain, without caps; N, C: chain ends. Non-standard residues stand in square brackets, D forms with d. Residues, ends and D or L forms follow the SMILES beside them. Groups on a side chain read outwards from the residue. *: point of attachment. Acetyl(2-S-cholesteryl) = CC(C)CCC[C@@H](C)[C@H]1CC[C@H]2[C@@H]3CC=C4C[C@@H](SCC(=O)*)CC[C@]4(C)[C@H]3CC[C@]12C; R8 = C=CCCCCCC[C@@](C)(N)C(=O)O; PEG4 = NCCOCCOCCOCCOCCC(=O)O; S5 = C=CCCC[C@](C)(N)C(=O)O; Nle = CCCC[C@H](N)C(=O)O

The target of series [1] is SARS-CoV-2 5-helix bundle (5-HB) protein (Severe acute respiratory syndrome coronavirus 2, UniProt P0DTC2). Briefly: biochemical. It is filed as binding.
For series [2], the system named is SARS-CoV-2 B.1.617.2 pseudovirus.
The subject of series [3] is SARS-CoV-2 WA-1 (Wuhan) isolate. On the set-up: species or system Syrian (Golden) hamsters. The following applies: hamster, in vivo.
Series [4] can be described thus: in vivo. The following applies: male, Syrian (Golden), hamster, inhaled or intranasal, 2.5 mg/kg, Nasal Tissue.
For series [5] the following is noted: mouse, in vivo.
The format of series [6] is physicochemical.
Series [7] relates to SARS-CoV-2 Beta B.1.351 live virus.
The format of series [8] is physicochemical. The following applies: pH 7.5.
In series [9] the test system is SARS-CoV-2 Delta B.1.617.2 live virus.
Series [10] deals with SARS-CoV-2 WA-1 (Wuhan) isolate. On the set-up: species or system Syrian (Golden) hamsters. The following applies: hamster, in vivo. This is another data set of the same source.
The nature of series [11]: in vivo. Particulars: male, C57BL/6, mouse, inhaled or intranasal.
Series [12] concerns SARS-CoV-2 B.1.1.529.1 pseudovirus.
Series [13] is classed as physicochemical. Particulars: pH 7.4.
Where [14] appears, read: 1 mg/kg, RQ-01 Nasal Tissue Concentration.
The mark [15] stands for this setting: 3 mg/kg, RQ-01 Nasal Tissue Concentration.
Setting [16] is: 10 mg/kg, RQ-01 Nasal Tissue Concentration.

For `CC[C@H](C)[C@H](NC(=O)[C@H](C)NC(=O)[C@H](CS)NC(=O)[C@H](CC(=O)O)NC(=O)[C@@H]1CCCN1C(=O)CNC(=O)[C@H](CC(C)C)NC(=O)[C@@H](NC(=O)[C@H](Cc1c[nH]cn1)NC(=O)[C@H](CS)NC(=O)[C@@H](NC(C)=O)[C@@H](C)O)[C@@H](C)CC)C(=O)N[C@@H](CCC(=O)O)C(=O)N1CCC[C@H]1C(=O)N[C@@H](Cc1c[nH]cn1)C(=O)N[C@@H](CC(=O)O)C(=O)N[C@@H](Cc1c[nH]c2ccccc12)C(=O)N[C@H](C(=O)N[C@]1(C)CCCCCCC=CCCC[C@@](C)(C(=O)N[C@@H](CCC(N)=O)C(=O)N[C@H](C(=O)N[C@H](C(=O)N[C@@H](Cc2c[nH]cn2)C(=O)N[C@@H](CC(=O)O)C(=O)N[C@@H](Cc2ccccc2)C(=O)N[C@H](C(=O)N[C@@H](CCCCNC(=O)CCOCCOCCOCCOCCNC(=O)CS[C@H]2CC[C@@]3(C)C(=CC[C@H]4[C@@H]5CC[C@H]([C@H](C)CCCC(C)C)[C@@]5(C)CC[C@@H]43)C2)C(N)=O)C(C)C)[C@@H](C)CC)[C@@H](C)CC)NC(=O)[C@H]([C@@H](C)CC)NC(=O)[C@H](CCCCN)NC(=O)[C@H](CC(=O)O)NC(=O)[C@H]([C@@H](C)O)NC(=O)[C@H]([C@@H](C)CC)NC(=O)[C@H](CCC(=O)O)NC1=O)[C@@H](C)O` [SLI-EBOV] (Ac-TCHILGPDCAIEPHDWT[R8]EITDKI[S5]QIIHDFVK([PEG4-Acetyl(2-S-cholesteryl)])-NH2; staple 18-25), in the series on HeLa cells, the cytotoxicity entry is “no cytotoxicity”.

As for `CC[C@H](C)[C@H](NC(=O)CNC(=O)[C@H](CO)NC(=O)[C@@H](NC(=O)[C@H](CC(=O)O)NC(C)=O)[C@@H](C)CC)C(=O)N[C@@H](CC(N)=O)C(=O)N[C@@H](C)C(=O)N[C@@H](CO)C(=O)N[C@H](C(=O)N[C@H](C(=O)N[C@@H](CC(N)=O)C(=O)N[C@H](C(=O)N[C@]1(C)CCCCCCC=CCCC[C@@](C)(C(=O)N[C@@H](CCC(=O)O)C(=O)N[C@H](C(=O)N[C@@H](C)C(=O)N[C@@H](CCCCN)C(=O)N[C@@H](CC(N)=O)C(=O)N[C@@H](CC(C)C)C(=O)N[C@@H](CC(N)=O)C(=O)N[C@@H](CCC(=O)O)C(=O)N[C@@H](CO)C(=O)N[C@@H](CC(C)C)C(=O)N[C@H](C(=O)N[C@@H](CC(=O)O)C(=O)N[C@@H](CC(C)C)C(=O)N[C@@H](CCC(N)=O)C(=O)N[C@@H](CCC(=O)O)C(=O)N[C@@H](CC(C)C)C(=O)NCC(=O)N[C@@H](CCCCN)C(N)=O)[C@@H](C)CC)C(C)C)NC(=O)[C@H](CC(C)C)NC(=O)[C@H](CCCNC(=N)N)NC(=O)[C@H](CC(=O)O)NC(=O)[C@H]([C@@H](C)CC)NC(=O)[C@H](CCC(=O)O)NC(=O)[C@H](CCCCN)NC1=O)[C@@H](C)CC)C(C)C)C(C)C` [RQ-01 (- linker-lipid)], in series [1], the “improvement of affinity compared to the unstapled HR2 peptide” value was found to be 7.5 fold.

Regarding `CCCC[C@H](NC(=O)[C@H](CO)NC(=O)[C@H](CO)NC(=O)[C@@H](NC(=O)[C@H](CCC(N)=O)NC(=O)[C@H](CO)NC(=O)[C@H](CO)NC(=O)[C@@H](NC(=O)[C@H](CC(=O)O)NC(C)=O)[C@@H](C)CC)[C@@H](C)CC)C(=O)N[C@@H](CC(N)=O)C(=O)N[C@@H](CCC(N)=O)C(=O)N[C@@H](CO)C(=O)N[C@@H](CC(C)C)C(=O)N[C@]1(C)CCCCCCC=CCCC[C@@](C)(C(=O)N[C@@H](CCC(=O)O)C(=O)N[C@@H](C)C(=O)N[C@@H](CCC(N)=O)C(=O)N[C@@H](CCCCN)C(=O)N[C@H](C(=O)N[C@@H](CC(C)C)C(=O)N[C@@H](CC(=O)O)C(=O)N[C@H](C(=O)N[C@H](C(=O)N[C@@H](CCCCNC(=O)CCOCCOCCOCCOCCNC(=O)CS[C@H]2CC[C@@]3(C)C(=CC[C@H]4[C@@H]5CC[C@H]([C@H](C)CCCC(C)C)[C@@]5(C)CC[C@@H]43)C2)C(N)=O)C(C)C)[C@@H](C)O)[C@@H](C)CC)NC(=O)[C@H]([C@@H](C)CC)NC(=O)[C@H](Cc2ccc(O)cc2)NC(=O)[C@H](CC(=O)O)NC(=O)[C@H](CCCCN)NC(=O)[C@H](CO)NC(=O)[C@H](CCC(N)=O)NC1=O` [SLI-NIPV] (Ac-DISSQISS[Nle]NQSL[R8]QSKDYI[S5]EAQKILDTVK([PEG4-Acetyl(2-S-cholesteryl)])-NH2; staple 14-21), in the series with 293T cells, the cytotoxicity entry was “no cytotoxicity”.

The term EC50 denotes the concentration at which the effect is half-maximal. The low end stands for an effect from little substance, the high end for a need for much substance. `CC[C@H](C)[C@H](NC(=O)CNC(=O)[C@H](CO)NC(=O)[C@@H](NC(=O)[C@H](CC(=O)O)NC(C)=O)[C@@H](C)CC)C(=O)N[C@@H](CC(N)=O)C(=O)N[C@@H](C)C(=O)N[C@@H](CO)C(=O)N[C@H](C(=O)N[C@H](C(=O)N[C@@H](CC(N)=O)C(=O)N[C@H](C(=O)N[C@]1(C)CCCCCCC=CCCC[C@@](C)(C(=O)N[C@@H](CCC(=O)O)C(=O)N[C@H](C(=O)N[C@@H](C)C(=O)N[C@@H](CCCCN)C(=O)N[C@@H](CC(N)=O)C(=O)N[C@@H](CC(C)C)C(=O)N[C@@H](CC(N)=O)C(=O)N[C@@H](CCC(=O)O)C(=O)N[C@@H](CO)C(=O)N[C@@H](CC(C)C)C(=O)N[C@H](C(=O)N[C@@H](CC(=O)O)C(=O)N[C@@H](CC(C)C)C(=O)N[C@@H](CCC(N)=O)C(=O)N[C@@H](CCC(=O)O)C(=O)N[C@@H](CC(C)C)C(=O)NCC(=O)N[C@@H](CCCCNC(=O)CCOCCOCCOCCOCCOCCOCCOCCOCCNC(=O)CO[C@H]2CC[C@@]3(C)C(=CC[C@H]4[C@@H]5CC[C@H]([C@H](C)CCCC(C)C)[C@@]5(C)CC[C@@H]43)C2)C(N)=O)[C@@H](C)CC)C(C)C)NC(=O)[C@H](CC(C)C)NC(=O)[C@H](CCCNC(=N)N)NC(=O)[C@H](CC(=O)O)NC(=O)[C@H]([C@@H](C)CC)NC(=O)[C@H](CCC(=O)O)NC(=O)[C@H](CCCCN)NC1=O)[C@@H](C)CC)C(C)C)C(C)C` [RQ-01] yielded an EC50 in series [1] of 1.9 nM. Besides, the “fold by which RQ-01 outperformed SARSHRC-PEG4-chol” value (“fold” below) in series [2] was 4.7 fold. In series [3], the OP swab titer is listed as 10-20 PFUs; the “lung histopathology (pneumonia global severity score, total lung score)” value was “significant protection from the pulmonary sequelae of SARS-CoV-2 infection”; the “viral shedding by OP swab” value is given as “significantly reduced”; the weight loss result is given as “significant protective effect from weight loss; also recorded: protection from weight loss was also observed”. Besides, the level at time molar at 4 h in “in vivo [4]” (RQ-01 tissue concentration) was 23.2 µM. This molecule also displayed a level at time molar at 4 h in “in vivo [4]” (pH 6.5, RQ-01 tissue concentration) of 28.8 µM. For the same molecule, in [5], the clinical observations entry was “no adverse clinical findings”, the “nasal tissue exposure relative to IC90 value” is 100-2000 x IC90 and the “nasal tissue levels relative to infectivity assay IC90” value was “over 100”. In addition, in series [5] (pH 6.5), the “peak lung tissue concentration relative to nasal tissue” value is given as “approximately 1/10th” and the “plasma exposure relative to nasal tissue” value is “approximately 1/1000th”. For the same molecule, in series [5] (pH 7.2), the “nasal tissue level by 48 h” value turned out to be 1 µM and the peak lung level is 1 µM. Moreover, the “intact compound, % of initial levels” value in series [6] (25 μM) is recorded as “fully preserved”. The “Percent Intact Peptide” value in [6] (1 h) is 108.538% and 105.019% and 100.148% and 101.614%. In [6] (12 h), the “Percent Intact Peptide” value was 100.519% and 101.487% and 97.3524% and 61.8294% and 103.036% and 91.5274% and 92.844% and 95.276%. For the same molecule, in [7], the “improvement of antiviral activity compared to the unstapled peptide” value lay within 24 to 39 fold. The circular dichroism analysis result in [8] was “exhibited α-helical character”. The cytotoxicity result with A549-ACE2 cells is “no cytotoxicity”. The “fold” value in series [9] is on record as 5.4 fold. Also, in [10], the “OP swab titers (Day 3)” value is reported as “A subset of hamsters from both RQ-01 treated cohorts exhibited reduced OP swab titers”, the lung viral titers entry is “suppression of lung viral titers”, the “transmission to sentinel hamsters” value was “did not prevent transmission” and the “weight loss of sentinels” value was “protection from weight loss”. Also, in “in vivo [11]” (setting [14]), the level at time molar at 2 h turned out to be 16.2 µM and the level at time molar at 4 h turned out to be 22.5 µM. Also, the level at time molar at 7 h in “in vivo [11]” (1 mg/kg, RQ-01 Tissue Concentration) came out at 0.064 µM. Besides, the level at time molar in “in vivo [11]” (2 mg/kg, pH 7.2, nasal tissue level, start) is 10 µM. In the series “in vivo [11]” (setting [15]), this molecule had a level at time molar at 2 h of 27.5 µM, a level at time molar at 4 h of 28.1 µM, a level at time molar at 7 h of 26.4 µM and a level at time molar at 24 h of 18.7 µM. In “in vivo [11]” (setting [16]), this molecule returned a level at time molar at 2 h of 73 µM, a level at time molar at 4 h of 44.9 µM, a level at time molar at 7 h of 59.6 µM and a level at time molar at 24 h of 25.4 µM. Moreover, the “fold” value in series [12] is reported as 23 fold. The “elution by fast protein liquid chromatography” value in series [13] is reported as “eluted as a monodispersed peak”.
